Measured values reported in patent publication US20240365773A1, “USE OF APOPTOSIS INHIBITORS FOR COLD STORAGE OF BLOOD PLATELETS” (DRK-BLUTSPENDEDIENST BADEN-WUERTTEMBERG-HESSEN GGMBH, priority 2021, published 2024).
“Also recorded” adds a separate entry of the source. Peptide text beside a SMILES is read from it. * marks the point of attachment. Cbz = O=C(OCc1ccccc1)*; CH2F = FC*

Columns and labels:
Type in all cases: cell-based, human
[1] = test system: PLTs of 4° C. stored APCs; assay: PLT viability of cold stored APCs treated with apoptosis inhibitors; settings: for % PLT viability (day 10): 4° C. stored APC; for % viable cells: APCs stored at 4° C., G04 150 μM, forskolin 0.75 μM
Description: (§1) APCs were collected from healthy volunteers according to the German guidelines for haemotherapy. Ten individuals donated two units of APCs collected with FENWAL AMICUS (Amicus, Fresenius Kabi, Bad Homburg, Germany) and stored in plasma or in PAS (SSP+, Macopharma, Langen, Germany) at 35% final plasma concentration at 4° C. and RT.
(§2) Appropriate concentration for the inhibitors was determined prior to experiments, by titrating different concentrations. Directly after the collection, the APCs were stored for an hour without agitation. APCs were split further into different culture bags under aseptic conditions and stored in sterile, oxygen permeable bag (Fresenius Kabi A G, Bad Homburg, Germany). APCs were treated with 150 μM RhoA inhibitor G04, 0.75 μM […] (PKA) activator forskolin or 40 μM Caspase-9 inhibitor z-LEHD-fmk. […] APCs without any additions were used as a negative control. After 2 hours of treatment at RT, all the samples except the control at RT, were stored at 4° C. under constant gentle agitation. All samples were activated with thrombin receptor-activating peptide TRAP ([…], HART Biologicals) prior to measurements.

PLTs from APCs = assay: Determination of apoptosis (Annexin V-FITC staining); settings: for % Apoptosis (day 10): 4° C. stored APC; for % apoptotic cells: APCs stored at 4° C., forskolin 0.75 μM, z-LEHD-fmk 40 μM
Description: as §1, §2
PLTs from APCs were washed, resuspended with 1 mM CaCl2 and stained with Annexin V-FITC (Beckman Coulter) for 60 min at RT. Freshly isolated PLTs were incubated with 10 μM ionomycin (Abcam, Cambridge, UK) and used as positive control.

[2] = test system: PLTs of 4° C. stored APCs; assay: Measurement of mitochondrial transmembrane potential; settings: APCs stored at 4° C.
Description: as §1, §2

[3] = test system: PLTs of 4° C. stored APCs; assay: Platelet aggregation (light transmission PLT aggregation assay); settings: for % PLT aggregation (day 7): 4° C. stored APC
Description: as §1, §2
PLT function was analyzed by FC and light transmission PLT aggregation assay (LTA) using a 4-channel-aggregometer (Labitec, Ahrensburg, Germany). Collagen (8 μg/ml), ristocetin ([…]) (both Molab, Langenfeld, Germany) or ADP (80 μM, Nycomed, Konstanz, Germany) were used as inductors.

cold-stored PLTs [4] = assay: Platelet adhesion on fibrinogen coated coverslips; settings: for Number of adherent cells (day 4) / Number of adherent cells (day 7): cold-stored PLTs, TRAP; for Number of adherent cells (day 4): day 4, fibrinogen coated coverslips; for Number of adherent cells (day 7): day 7, fibrinogen coated coverslips
Description: Coverslips (Corning, New York, USA) were coated with […] of fibrinogen (Sigma Aldrich, Munich, Germany). After 4 and 7 days of storage PLTs (1×10^8 PLTs/mL) were seeded on coverslips and incubated for 1 hour at room temperature (RT) with TRAP (0.1 mM, Hart Biologicals, Hartlepool, UK). The adherent cells were fixed with 4% paraformaldehyde for 20 minutes (min) at RT. Images were captured from 5 different microscopic fields/coverslips (×100, Olympus IX73, Tokyo, Japan).

cold-stored PLTs [5] = assay: Thrombin generation (calibrated automated thrombogram); settings: each storage time point, vs buffer/untreated
Description: Thrombin generation was quantified performing a fluorescence based-assay using a calibrated automated thrombogram system (CAT, Stago, Maastricht, Netherlands). The fluorescence signal was acquired for 60 min with a 390-nm […] excitation/460-nm emission filter set.

cold-stored PLTs [6] = assay: Clot formation (thromboelastometer); settings: vs buffer/untreated
Description: The clot formation was analysed using a 6-channel thromboelastometer device (Clot Pro, Enicor, Germany) and parameters were automatically calculated by dedicated software.

[7] = test system: PLTs of 4° C. stored APCs; assay: Functional analysis of cold stored APCs (all functional parameters); settings: treated vs untreated
Description: PLTs (10×10^6/mL) were incubated with TRAP6 (20 μM) for 30 min at 37° C., fixed with 4% PFA for 20 min at RT. The expression of CD62P (CLBThromb/6, Beckman Coulter) and CD63 (CLBGran/12, Beckman Coulter) was determined by FC. The conformational changes of glycoproteins (GPs) IIb/IIIa complex upon activation with TRAP were detected by PAC-1-antibody (BD Bioscience) using FC. PLT function was analyzed by FC and light transmission PLT aggregation assay (LTA) using a 4-channel-aggregometer (Labitec, Ahrensburg, Germany). Collagen (8 μg/ml), ristocetin ([…]) (both Molab, Langenfeld, Germany) or ADP (80 μM, Nycomed, Konstanz, Germany) were used as inductors.

| Compound | % PLT viability (day 10) ([1]; day 10) | % viable cells ([1]; day 7) | % viable cells ([1]; day 10, z-LEHD-fmk 40 μM) | % Apoptosis (day 10) (PLTs from APCs; day 10) | % apoptotic cells (PLTs from APCs; day 7) | % apoptotic cells (PLTs from APCs; day 10, G04 150 μM) | mitochondrial transmembrane potential ΔΨm MFI ([2]; day 7) | mitochondrial transmembrane potential ΔΨm MFI ([2]; day 10) | % PLT aggregation (day 7) [3] | Number of adherent cells (day 4) (cold-stored PLTs [4]) | Number of adherent cells (day 7) (cold-stored PLTs [4]) | PLT viability / survival (in words) ([1]; cold stored APCs) | apoptosis (in words) (PLTs from APCs; cold stored APCs) | PLT aggregation (in words) ([3]; cold stored APCs, day 4) | PLT adhesion, number of adherent cells (in words) (cold-stored PLTs [4]; cold-stored PLTs after 4 and 7 days of storage, vs buffer/untreated) | thrombin generation (AUC, area under the curve), in words (cold-stored PLTs [5]) | clot formation (MCF, maximum clot firmness), in words (cold-stored PLTs [6]) | PLT functions / functional parameters (overall, in words) [7] |
| --- | --- | --- | --- | --- | --- | --- | --- | --- | --- | --- | --- | --- | --- | --- | --- | --- | --- | --- |
| C=C[C@@]1(C)CC(=O)[C@]2(O)[C@@]3(C)[C@@H](O)CCC(C)(C)[C@@H]3[C@H](O)[C@H](OC(C)=O)[C@@]2(C)O1 [forskolin] | 58.95% | 87.1% | 58.95% | 33% | 9.3% | 33% | 17.88 MFI | 11.02 MFI | No significant effect | No significant effect | No significant effect |  |  |  |  |  |  |  |
| COC(=O)CC[C@H](NC(=O)[C@H](CC(C)C)NC(=O)OCc1ccccc1)C(=O)N[C@@H](Cc1cnc[nH]1)C(=O)N[C@@H](CC(=O)OC)C(=O)CF [z-LEHD-fmk] (Cbz-LE(OMe)HD(OMe)-CH2F) | 60.38% |  | 60.38% | 39% | 9.85% | 39.00% |  | 6.26 MFI | No significant effect | No significant effect | No significant effect | partially restores PLT viability | decreases apoptosis | tendency of decreased PLT aggregation was observed at day 4 after the treatment, but it was not significant | no significant impact | no significant impact | no significant impact | no significant impact; also recorded: does not affect the diminished PLT function; also recorded: does not affect PLT functions |
